Reference: publication PMC6042793 (PLoS ONE, 2018)

What was measured:
[1] = tested on: sialidase activity of A/Memphis/1/1971 (H3N2); format: biochemical, influenza A virus (H3N2); conditions: pH 6.5
[2] = target: S. pneumoniae sialidase activity (Streptococcus pneumoniae, UniProt P62575); format: biochemical; set-up: key to Test result in the BTP3-based filter method in the presence of NAI: -, not detected; conditions: for NAI susceptibility in the BTP3-based filter method (fluorescence in the presence of NAI): pH 6.5, 56°C 15 min
[3] = tested on: sialidase activity of A/Shizuoka/19/2016 (H1N1pdm); format: biochemical, influenza A virus (H1N1pdm); conditions: pH 6.5
[4] = target: sialidase activity of B/Lee/1940 (Influenza B virus, UniProt P03474); format: biochemical; conditions: pH 6.5
[5] = tested on: sialidase activity of A/Shizuoka/17/2016 (H1N1pdm); format: biochemical, influenza A virus (H1N1pdm); conditions: pH 6.5
MuV sialidase activity = MuV sialidase activity (Mumps virus genotype B, UniProt P11235); format: biochemical
[6] = target: sialidase activity of A/Puerto Rico/8/1934 (H1N1) (Influenza A virus, UniProt P03468); format: biochemical; conditions: pH 6.5
Chain of sialidase activity of A/Puerto Rico/8/1934 (H1N1) (P03468 whole entry, looked up): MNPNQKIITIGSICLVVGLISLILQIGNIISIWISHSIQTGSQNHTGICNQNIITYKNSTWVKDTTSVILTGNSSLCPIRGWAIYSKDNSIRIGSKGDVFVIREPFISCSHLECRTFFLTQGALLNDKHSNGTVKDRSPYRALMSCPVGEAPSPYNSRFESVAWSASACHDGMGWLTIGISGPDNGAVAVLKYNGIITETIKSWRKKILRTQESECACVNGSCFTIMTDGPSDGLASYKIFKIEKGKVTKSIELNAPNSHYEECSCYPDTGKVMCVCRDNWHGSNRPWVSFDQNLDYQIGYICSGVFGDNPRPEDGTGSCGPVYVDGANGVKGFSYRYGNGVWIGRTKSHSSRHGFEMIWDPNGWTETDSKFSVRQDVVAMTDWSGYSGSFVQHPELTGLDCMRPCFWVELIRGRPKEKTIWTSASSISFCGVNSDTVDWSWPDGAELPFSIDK

Chain of MuV sialidase activity (P11235 whole entry): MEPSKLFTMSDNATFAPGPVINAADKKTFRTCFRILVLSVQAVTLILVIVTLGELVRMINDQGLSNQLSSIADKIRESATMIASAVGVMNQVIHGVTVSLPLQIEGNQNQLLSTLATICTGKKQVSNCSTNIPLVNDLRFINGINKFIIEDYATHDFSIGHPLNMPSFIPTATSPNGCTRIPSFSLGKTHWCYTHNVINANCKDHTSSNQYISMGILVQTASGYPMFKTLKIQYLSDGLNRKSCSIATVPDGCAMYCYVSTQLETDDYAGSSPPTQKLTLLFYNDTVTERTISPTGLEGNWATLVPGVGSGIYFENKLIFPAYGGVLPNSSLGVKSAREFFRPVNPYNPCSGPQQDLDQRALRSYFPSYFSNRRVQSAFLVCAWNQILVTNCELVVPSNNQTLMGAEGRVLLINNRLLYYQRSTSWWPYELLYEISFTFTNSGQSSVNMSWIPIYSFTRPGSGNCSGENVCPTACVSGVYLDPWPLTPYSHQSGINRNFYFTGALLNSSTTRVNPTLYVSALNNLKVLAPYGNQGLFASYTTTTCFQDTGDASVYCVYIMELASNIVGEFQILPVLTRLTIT
Chain of sialidase activity of B/Lee/1940 (P03474 whole entry): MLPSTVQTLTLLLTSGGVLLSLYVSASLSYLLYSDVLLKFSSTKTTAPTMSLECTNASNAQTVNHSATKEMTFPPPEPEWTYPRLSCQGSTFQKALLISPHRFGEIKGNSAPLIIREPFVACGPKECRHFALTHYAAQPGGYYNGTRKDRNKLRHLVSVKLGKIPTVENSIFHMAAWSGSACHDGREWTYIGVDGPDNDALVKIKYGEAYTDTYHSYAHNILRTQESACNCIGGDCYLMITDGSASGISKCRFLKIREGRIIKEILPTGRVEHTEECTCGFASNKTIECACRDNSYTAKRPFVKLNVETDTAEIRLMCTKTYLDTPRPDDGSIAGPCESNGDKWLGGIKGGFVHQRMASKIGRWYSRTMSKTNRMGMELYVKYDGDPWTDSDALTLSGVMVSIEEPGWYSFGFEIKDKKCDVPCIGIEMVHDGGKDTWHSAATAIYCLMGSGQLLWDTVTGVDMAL
Chain of S. pneumoniae sialidase activity (P62575 54-1035): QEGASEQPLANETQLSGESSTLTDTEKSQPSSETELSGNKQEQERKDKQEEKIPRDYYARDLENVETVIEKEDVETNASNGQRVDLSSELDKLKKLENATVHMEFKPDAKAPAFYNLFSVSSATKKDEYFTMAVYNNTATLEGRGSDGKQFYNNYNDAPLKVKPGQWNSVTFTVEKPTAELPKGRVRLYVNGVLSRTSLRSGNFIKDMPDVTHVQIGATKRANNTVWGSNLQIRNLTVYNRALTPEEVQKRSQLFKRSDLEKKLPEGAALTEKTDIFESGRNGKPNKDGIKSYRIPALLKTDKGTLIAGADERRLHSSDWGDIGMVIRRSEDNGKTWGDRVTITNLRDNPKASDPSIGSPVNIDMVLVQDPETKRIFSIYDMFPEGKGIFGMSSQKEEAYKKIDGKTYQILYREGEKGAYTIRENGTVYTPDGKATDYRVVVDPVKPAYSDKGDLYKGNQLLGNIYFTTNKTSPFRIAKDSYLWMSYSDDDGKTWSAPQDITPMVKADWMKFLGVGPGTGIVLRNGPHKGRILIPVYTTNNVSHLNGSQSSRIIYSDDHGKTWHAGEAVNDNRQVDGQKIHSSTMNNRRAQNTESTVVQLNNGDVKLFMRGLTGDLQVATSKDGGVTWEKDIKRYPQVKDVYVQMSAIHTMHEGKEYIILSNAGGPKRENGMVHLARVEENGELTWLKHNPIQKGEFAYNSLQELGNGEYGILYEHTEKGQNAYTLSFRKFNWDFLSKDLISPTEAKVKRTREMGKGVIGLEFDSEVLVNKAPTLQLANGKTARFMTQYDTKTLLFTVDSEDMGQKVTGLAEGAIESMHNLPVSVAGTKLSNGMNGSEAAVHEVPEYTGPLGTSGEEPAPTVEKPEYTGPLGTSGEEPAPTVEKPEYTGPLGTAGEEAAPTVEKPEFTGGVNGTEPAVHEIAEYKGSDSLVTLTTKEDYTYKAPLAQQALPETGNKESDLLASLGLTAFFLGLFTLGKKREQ

Compound: [H]/N=C(\N)N[C@H]1C=C(C(=O)O)O[C@@H]([C@H](OC)[C@H](O)CO)[C@@H]1NC(C)=O [LV, laninamivir]
- BTP3 fluorescence on the membrane in the presence of NAI [1]: not observed
- Test result in the BTP3-based filter method in the presence of NAI [2]: Positive
- NAI susceptibility in the BTP3-based filter method (fluorescence in the presence of NAI) [2]: showed fluorescence
- BTP3 fluorescence on the membrane in the presence of NAI [3]: not observed
- BTP3 fluorescence on the membrane in the presence of NAI [4]: not observed
- BTP3 fluorescence on the membrane in the presence of NAI [5]: not observed
- Test result in the BTP3-based filter method in the presence of NAI (MuV sialidase activity): Positive
- BTP3 fluorescence on the membrane in the presence of NAI [6]: not observed

Compound: CCOC(=O)C1=C[C@@H](OC(CC)CC)[C@H](NC(C)=O)[C@@H](N)C1 [OV, oseltamivir]
- BTP3 fluorescence on the membrane in the presence of NAI [1]: not observed
- Test result in the BTP3-based filter method in the presence of NAI [2]: -
- NAI susceptibility in the BTP3-based filter method (fluorescence in the presence of NAI) [2]: susceptible
- BTP3 fluorescence on the membrane in the presence of NAI [3]: not observed
- BTP3 fluorescence on the membrane in the presence of NAI [4]: not observed
- BTP3 fluorescence on the membrane in the presence of NAI [5]: not observed
- Test result in the BTP3-based filter method in the presence of NAI (MuV sialidase activity): Positive
- BTP3 fluorescence on the membrane in the presence of NAI [6]: not observed

Compound: CCC(CC)[C@H](NC(C)=O)[C@@H]1[C@H](O)[C@@H](C(=O)O)C[C@H]1N=C(N)N [PV, peramivir]
- BTP3 fluorescence on the membrane in the presence of NAI [1]: not observed
- Test result in the BTP3-based filter method in the presence of NAI [2]: Positive
- NAI susceptibility in the BTP3-based filter method (fluorescence in the presence of NAI) [2]: showed fluorescence
- BTP3 fluorescence on the membrane in the presence of NAI [3]: not observed
- BTP3 fluorescence on the membrane in the presence of NAI [4]: not observed
- BTP3 fluorescence on the membrane in the presence of NAI [5]: not observed
- Test result in the BTP3-based filter method in the presence of NAI (MuV sialidase activity): Positive
- BTP3 fluorescence on the membrane in the presence of NAI [6]: not observed

Compound: CC(=O)N[C@H]1[C@H]([C@H](O)[C@H](O)CO)OC(C(=O)O)=C[C@@H]1N=C(N)N [ZV, zanamivir]
- BTP3 fluorescence on the membrane in the presence of NAI [1]: not observed
- Test result in the BTP3-based filter method in the presence of NAI [2]: Positive
- NAI susceptibility in the BTP3-based filter method (fluorescence in the presence of NAI) [2]: showed fluorescence
- BTP3 fluorescence on the membrane in the presence of NAI [3]: not observed
- BTP3 fluorescence on the membrane in the presence of NAI [5]: not observed
- Test result in the BTP3-based filter method in the presence of NAI (MuV sialidase activity): Positive
